Laboratory results from patent publication US9271934B2, “Water dispersible glyceryl monooleate magnetic nanoparticle formulation” (Institute of Life Sciences, priority 2009, dated 2016).

Experiments:
[1] = system: MCF-7 (breast cancer) cell line; test: Mitogenic (MTT) assay, antiproliferative effect in MCF-7 cells; format: cell-based
Method: The cell culture experiments were carried out in MCF-7 (breast cancer) cell line purchased from American Type Culture Collection (ATCC, Manassas, Va.) were grown in RPMI 1640 medium (Himedia Laboratories Pvt. Ltd., Mumbai, India) supplemented with 10% fetal bovine serum (Himedia Laboratories Pvt. Ltd., Mumbai, India) and 100 μg/ml penicillin G and 100 μg/ml streptomycin (Gibco BRL, Grand island, NY) at 37° C. in a humidified and 5% CO2 atmosphere (Hera Cell, Thermo Scientific, Waltham, Mass.).
(§1) To find out the cytotoxicity of the anticancer drugs, mitogenic assay was carried out. The MCF-7 cells were seeded at 5,000 per well in 96 well plate (Corning, N.Y., USA) and kept in the incubator for 24 hours for better cell attachment. […] Glyceryl monooleate (GMO) Magnetic nanoparticles (MNPs) without drug and medium were used as respective controls. The medium was changed on 2nd and 4th days following the drug treatment; no further dose of drug was added. Viability of the cells was determined at 5th day. After the specified incubation time, 10 μl MTT (Sigma) was added, and the plates were incubated for 3 hours at 37° C. in a cell culture incubator (Hera Cell, Thermo Scientific, Waltham, Mass.), following which the intracellular formazan crystals were solubilized in dimethyl sulfoxide and the color intensity was measured at 540 nm using a microplate reader (Synergy HT, BioTek Instruments, Inc., Winooski, Vt.). The antiproliferative effect of different treatments was calculated as a percentage of cell growth with respect to respective controls.
The cell culture experiments were carried out in MCF-7 (breast cancer) cell line purchased from American Type Culture Collection (ATCC, Manassas, Va.) were grown in RPMI 1640 medium (Himedia Laboratories PVT. LTD., Mumbai, India) supplemented with 10% fetal bovine serum (Himedia Laboratories Pvt. Ltd., Mumbai, India) and 100 μg/ml penicillin G and 100 μg/ml streptomycin (Gibco BRL, Grand island, NY) at 37° C. in a humidified and 5% CO2— atmosphere (Hera Cell, Thermo Scientific, Waltham, Mass.).
as §1, with “GMO-MNPs” for “Glyceryl monooleate (GMO) Magnetic nanoparticles (MNPs)”

[2] = higher doses; cited from earlier work
human erythrocytes = conditions: pluronic used as emulsifying agent for amphotericin-B; cited from earlier work
[3] = MCF-7, MTT day 5, highest concentration of the range (1000 ng/ml, printed for paclitaxel)
[4] = MCF-7, MTT day 5, lowest concentration of the range (1 ng/ml, printed for paclitaxel)

| IC50 ([1]; Homo sapiens, MCF7, 120 h, MCF-7 cells, MTT assay on day 5, medium changed on days 2 and 4) [µg/mL] | Compound | cell viability percentage [1, 3] | cell viability percentage [1, 4] [%] | effect on cholesterol and triglycerides in the blood plasma [2] | concentration with detectable cell lysis of human erythrocytes (human erythrocytes) [ng/mL] |
| --- | --- | --- | --- | --- | --- |
|  | CC(=O)O[C@H]1C(=O)[C@@]2(C)[C@H]([C@H](OC(=O)c3ccccc3)[C@]3(O)C[C@H](OC(=O)[C@H](O)[C@@H](NC(=O)c4ccccc4)c4ccccc4)C(C)=C1C3(C)C)[C@]1(OC(C)=O)CO[C@@H]1C[C@@H]2O [paclitaxel, Paclitaxel] | about 30% | 95 |  |  |
| 0.0588 | CO[C@H]1C[C@@H]2CC[C@@H](C)[C@@](O)(O2)C(=O)C(=O)N2CCCC[C@H]2C(=O)O[C@H]([C@H](C)C[C@@H]2CC[C@@H](O)[C@H](OC)C2)CC(=O)[C@H](C)/C=C(\C)[C@@H](O)[C@@H](OC)C(=O)[C@H](C)C[C@H](C)/C=C/C=C/C=C/1C [rapamycin] | 37% | 65 |  |  |
|  | Pluronic F-127 |  |  | elevation of cholesterol and triglycerides in the blood plasma | 16000 |
